Drawing on patent publication US12428415B2, “Matriptase 2 inhibitors and uses thereof” (Disc Medicine, Inc., priority 2018, dated 2025), this text covers inhibition for 38 compounds.

The experiment has as its target T1, Human Recombinant Matriptase 2 (Homo sapiens, UniProt Q8IU80).
T1 construct: purchased Enzo Life Sciences (an in-house preparation was also used) ALX-201-752-1
T1 sequence (Q8IU80 1-811): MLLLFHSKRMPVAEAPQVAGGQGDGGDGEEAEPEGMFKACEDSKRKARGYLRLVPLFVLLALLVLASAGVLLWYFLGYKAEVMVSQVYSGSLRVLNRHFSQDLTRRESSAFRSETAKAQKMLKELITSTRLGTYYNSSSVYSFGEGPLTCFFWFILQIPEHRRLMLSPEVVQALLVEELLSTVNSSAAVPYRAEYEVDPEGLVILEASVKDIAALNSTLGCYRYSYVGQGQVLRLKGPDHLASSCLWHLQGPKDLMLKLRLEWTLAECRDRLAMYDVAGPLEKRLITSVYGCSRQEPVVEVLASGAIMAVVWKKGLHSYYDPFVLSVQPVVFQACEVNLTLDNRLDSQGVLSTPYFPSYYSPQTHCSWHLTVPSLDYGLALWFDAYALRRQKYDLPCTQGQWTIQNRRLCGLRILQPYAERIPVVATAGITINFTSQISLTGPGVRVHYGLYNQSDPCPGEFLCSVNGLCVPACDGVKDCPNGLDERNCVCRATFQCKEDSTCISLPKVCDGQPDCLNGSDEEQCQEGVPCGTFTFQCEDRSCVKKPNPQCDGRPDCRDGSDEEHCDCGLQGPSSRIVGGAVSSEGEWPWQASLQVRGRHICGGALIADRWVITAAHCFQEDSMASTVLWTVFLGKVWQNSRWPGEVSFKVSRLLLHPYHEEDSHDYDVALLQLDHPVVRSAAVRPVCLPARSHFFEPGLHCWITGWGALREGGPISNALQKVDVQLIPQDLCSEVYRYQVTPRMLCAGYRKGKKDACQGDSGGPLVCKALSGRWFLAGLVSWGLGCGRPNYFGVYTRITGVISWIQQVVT
Kind of experiment: Matriptase 2 fluorescence based inhibition assay, Method B (50 mM TRIS pH 7.5, 150 mM NaCl, 0.01% gelatin). It counts as biochemical. Conditions: read-out: Mar-2 % inhibition at 1 uM. In outline:
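Commercial (7 nM) or in-house (15 nM) enzyme preincubated 30 min with compound at 25° C, then 100 μM Boc-Gln-Ala-Arg-AMC added; fluorescence (Ex 360/Em 480 nm) read at 60 min. 1% DMSO final. IC50 from variable-slope sigmoidal fit of % inhibition.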

Like-named read-outs stand apart in the source and are kept apart here.

Usually inhibition stands for the drop in the measured response relative to a control, in per cent. In the case of `CC(C)(C)OC(=O)N[C@H]1CC[C@H](NC(=O)c2cn(Cc3cccc4ccccc34)c3cc(C(=N)N)ccc23)CC1` [Compound I-518, tert-butyl ((1r,4r)-4-(6-carbamimidoyl-1-(naphthalen-1-ylmethyl)-1H-indole-3-carboxamido)cyclohexyl) carbamate], where the note is “1 uM compound, Assay Used = B”, the inhibition at 1 µM fell in the range of 0 to 25%.
Same read-out and setting: the value for `N=C(N)c1ccc2c(C(=O)N[C@H]3CC[C@H](N)CC3)cn(Cc3cccc4ccccc34)c2c1` [Compound I-519, N-((1r,4r)-4-aminocyclohexyl)-6-carbamimidoyl-1-(naphthalen-1-ylmethyl)-1H-indole-3-carboxamide] was 0 to 25%.
Consider `N=C(N)c1ccc2c(C(=O)N[C@H]3CC[C@H](N)CC3)cn(Cc3ccc4ccccc4c3)c2c1` [Compound I-520], for which the inhibition at 1 µM (1 uM compound, Assay Used = B) is 0 to 25%.
Regarding `N=C(N)c1ccc2ccn(Cc3cccc4ccccc34)c2c1` [Compound I-521, 1-(naphthalen-1-ylmethyl)-1H-indole-6-carboximidamide], the inhibition at 1 µM (1 uM compound, Assay Used = B) fell in the range of 50 to 75%.
On to `N=C(N)c1ccc2cc(S(=O)(=O)N[C@H]3CC[C@H](N)CC3)n(Cc3cccc4ccccc34)c2c1` [Compound I-522, 2-(N-((1r,4r)-4-aminocyclohexyl)sulfamoyl)-1-(naphthalen-1-ylmethyl)-1H-indole-6-carboximidamide], for which, where the note is “1 uM compound, Assay Used = B”, the inhibition at 1 µM was 50 to 75%.
Same read-out and setting: the value for `N=C(N)c1ccc2cc(S(=O)(=O)N(Cc3cccc4ccccc34)[C@H]3CC[C@H](N)CC3)n(Cc3cccc4ccccc34)c2c1` [Compound I-523] was 0 to 25%; that for `CC(C)(C)OC(=O)N[C@H]1CC[C@H](c2nnc(-c3cc4ccc(C(=N)N)cc4n3Cc3cccc4ccccc34)o2)CC1` [Compound I-524, tert-butyl ((1r,4r)-4-(5-(6-carbamimidoyl-1-(naphthalen-1-ylmethyl)-1H-indol-2-yl)-1,3,4-oxadiazol-2-yl)cyclohexyl)carbamate] was 25 to 50%.
On the same count and under the same terms, the value for `N=C(N)c1ccc2cc(-c3nnc([C@H]4CC[C@H](N)CC4)o3)n(Cc3cccc4ccccc34)c2c1` [Compound I-525, 2-(5-((1r,4r)-4-aminocyclohexyl)-1,3,4-oxadiazol-2-yl)-1-(naphthalen-1-ylmethyl)-1H-indole-6-carboximidamide] was 75 to 100%; that for `N=C(N)c1ccc2cc(-c3nnc([C@H]4CC[C@H](N)CC4)s3)n(Cc3cccc4ccccc34)c2c1` [Compound I-526, 2-(5-((1r,4r)-4-aminocyclohexyl)-1,3,4-thiadiazol-2-yl)-1-(naphthalen-1-ylmethyl)-1H-indole-6-carboximidamide] was 75 to 100%; that for `NC(=O)c1ccc2cc(-c3nnc([C@H]4CC[C@H](N)CC4)s3)n(Cc3cccc4ccccc34)c2c1` [Compound I-527, 2-(5-((1r,4r)-4-aminocyclohexyl)-1,3,4-thiadiazol-2-yl)-1-(naphthalen-1-ylmethyl)-1H-indole-6-carboxamide] was 0 to 25%.
`N=C(N)c1ccc2cc(-c3nc4c(s3)CCC(N)C4)n(Cc3cccc4ccccc34)c2c1` (centres unmarked) [Compound I-528, 2-(5-amino-4,5,6,7-tetrahydrobenzo[d]thiazol-2-yl)-1-(naphthalen-1-ylmethyl)-1H-indole-6-carboximidamide]: the inhibition at 1 µM (1 uM compound, Assay Used = B) lay within 25 to 50%.
`N=C(N)c1ccc2cc(NC(=O)[C@H]3CC[C@H](N)CC3)n(Cc3cccc4ccccc34)c2c1` [Compound I-529, (1r,4r)-4-amino-N-(6-carbamimidoyl-1-(naphthalen-1-ylmethyl)-1H-indol-2-yl) cyclohexane-1-carboxamide]: the inhibition at 1 µM (1 uM compound, Assay Used = B) fell in the range of 50 to 75%.
On the same count and under the same terms, the value for `CC(C)(C)OC(=O)N[C@H]1CC[C@H](NC(=O)c2cc3ccc(CN)cc3n2Cc2cccc3ccccc23)CC1` [Compound I-530, tert-butyl ((1r,4r)-4-(6-(aminomethyl)-1-(naphthalen-1-ylmethyl)-1H-indole-2-carboxamido)cyclohexyl) carbamate] was 0 to 25%.
Same read-out and setting: the value for `NCc1ccc2cc(C(=O)N[C@H]3CC[C@H](N)CC3)n(Cc3cccc4ccccc34)c2c1` [Compound I-531, N-((1r,4r)-4-aminocyclohexyl)-6-(aminomethyl)-1-(naphthalen-1-ylmethyl)-1H-indole-2-carboxamide] was 50 to 75%.
The same measure, in the same setting: the value for `NCc1ccc2cc(C(=O)N[C@H]3CC[C@H](O)CC3)n(Cc3cccc4ccccc34)c2c1` [Compound I-532] was 25 to 50%; that for `NCc1ccc2cc(C(=O)NC3CCNCC3)n(Cc3cccc4ccccc34)c2c1` [Compound I-533] was 25 to 50%.
Turning to `NCc1ccc2cc(C(=O)NCC3CCNCC3)n(Cc3cccc4ccccc34)c2c1` [Compound I-534], the inhibition at 1 µM (1 uM compound, Assay Used = B) lay in the range of 25 to 50%.
Still for that read-out and setting: as for `CN1CCC(NC(=O)c2cc3ccc(CN)cc3n2Cc2cccc3ccccc23)CC1` [Compound I-535], the figure is 25 to 50%.
The same measure, in the same setting: the value for `NCc1ccc2cc(C(=O)NCC3CCNCC3)n(-c3ccc4ccccc4c3)c2c1` [Compound I-537] was 0 to 25%.
`NCc1ccc2cc(C(=O)O)n(Cc3cccc4ccccc34)c2c1` [Compound I-538, 6-(aminomethyl)-1-(naphthalen-1-ylmethyl)-1H-indole-2-carboxylic Acid]: the inhibition at 1 µM (1 uM compound, Assay Used = B) was in the range of 25 to 50%.
Still for that read-out and setting: the value for `CC(C)(C)OC(=O)NCc1ccc2cc(C(=O)O)n(Cc3cccc4ccccc34)c2c1` [Compound I-539, 6-(((tert-butoxycarbonyl)amino)methyl)-1-(naphthalen-1-ylmethyl)-1H-indole-2-carboxylic Acid] was 0 to 25%; that for `NCc1ccc2cc(C(=O)NC3CCCC(N)C3)n(Cc3cccc4ccccc34)c2c1` (centres unmarked) [Compound I-540] was 25 to 50%; that for `NCCCCNC(=O)c1cc2ccc(CN)cc2n1Cc1cccc2ccccc12` [Compound I-541] was 0 to 25%.
As to `N=C(N)c1ccc2nc(C(=O)N[C@H]3CC[C@H](N)CC3)n(Cc3cccc4ccccc34)c2c1` [Compound I-542, N-((1r,4r)-4-aminocyclohexyl)-6-carbamimidoyl-1-(naphthalen-1-ylmethyl)-1H-benzo[d]imidazole-2-carboxamide], the inhibition at 1 µM (1 uM compound, Assay Used = B) is 75 to 100%.
Still for that read-out and setting: the value for `N=C(N)c1ccc2cc(C(=O)O)n(Cc3cc(Oc4ncccn4)cc4ccccc34)c2n1` [Compound I-544] was 25 to 50%.
As for `CN1CCC(NC(=O)c2cc3ccc(C(=N)NC(=O)Oc4ccc(F)cc4)cc3n2Cc2cc(Oc3ncccn3)cc3ccccc23)CC1` [Compound I-545], the inhibition at 1 µM lay within 25 to 50%.
Consider `CS(=O)(=O)Nc1cc(Cn2c(C(=O)O)cc3ccc(C(=N)N)cc32)c2ccccc2c1` [Compound I-546], for which the inhibition at 1 µM (1 uM compound, Assay Used = B) lay in the range of 75 to 100%.
Still for that read-out and setting: as for `N=C(N)c1ccc2cc(C(=O)NCCS(N)(=O)=O)n(Cc3cc(Oc4ncccn4)cc4ccccc34)c2c1` [Compound I-547], the figure is 75 to 100%; as for `N=C(N)c1ccc2cc(C(=O)O)n(Cc3cc(S(N)(=O)=O)cc4ccccc34)c2c1` [Compound I-548], 25 to 50%.
On the same count and under the same terms, as for `CCOC(=O)NC(=N)c1ccc2cc(C(=O)NC3CCN(C)CC3)n(Cc3cc(Oc4ncccn4)cc4ccccc34)c2c1` [Compound I-549], the figure is 25 to 50%.
The same measure, in the same setting: as for `COC(=O)NCCOC(=O)c1cc2ccc(C(=N)NC(=O)OCC(C)C)cc2n1Cc1cc(Oc2ncccn2)cc2ccccc12` [Compound I-550], the figure is 0 to 25%.
For `N=C(NC(=O)Oc1ccccc1)c1ccc2cc(C(=O)O)n(Cc3cc(Oc4ncccn4)cc4ccccc34)c2c1` [Compound I-551], the inhibition at 1 µM was in the range of 0 to 25%.
On to `N=C(NC(=O)OCC(Cl)(Cl)Cl)c1ccc2cc(C(=O)O)n(Cc3cc(Oc4ncccn4)cc4ccccc34)c2c1` [Compound I-552], for which, under “1 uM compound, Assay Used = B”, the inhibition at 1 µM lay within 0 to 25%.
`CN1CCC(NC(=O)c2cc3ccc(C(=N)NC(=O)Oc4ccccc4)cc3n2Cc2cc(Oc3ncccn3)cc3ccccc23)CC1` [Compound I-553]: the inhibition at 1 µM lay within 0 to 25%.
Still for that read-out and setting: as for `COC(=O)NCCOC(=O)c1cc2ccc(C(=N)NC(=O)Oc3ccccc3)cc2n1Cc1cc(Oc2ncccn2)cc2ccccc12` [Compound I-554], the figure is 0 to 25%.
Take `COC(=O)NCCOC(=O)c1cc2ccc(C(=N)N)cc2n1Cc1cc(Oc2ccccc2)cc2ccccc12` [Compound I-555]: the inhibition at 1 µM (1 uM compound, Assay Used = B) lay in the range of 25 to 50%.
Same read-out and setting: as for `COC(=O)NCCOC(=O)c1cc2ccc(C(=N)N)cc2n1Cc1cc(S(=O)(=O)c2ccccc2)cc2ccccc12` [Compound I-556], the figure is 25 to 50%.
Still for that read-out and setting: the value for `CC(C)COC(=O)NC(=N)c1ccc2cc(C(=O)NC3CCN(C)CC3)n(Cc3cc(Oc4ncccn4)cc4ccccc34)c2c1` [Compound I-557] was 0 to 25%.
